Assay results reported in patent publication US20070149557A1, “CXCR3 antagonists” (Amgen Inc., priority 2005, published 2007).

Molecular target: T1, CXCR3 (Homo sapiens, UniProt P49682)
T1 sequence (P49682 1-368): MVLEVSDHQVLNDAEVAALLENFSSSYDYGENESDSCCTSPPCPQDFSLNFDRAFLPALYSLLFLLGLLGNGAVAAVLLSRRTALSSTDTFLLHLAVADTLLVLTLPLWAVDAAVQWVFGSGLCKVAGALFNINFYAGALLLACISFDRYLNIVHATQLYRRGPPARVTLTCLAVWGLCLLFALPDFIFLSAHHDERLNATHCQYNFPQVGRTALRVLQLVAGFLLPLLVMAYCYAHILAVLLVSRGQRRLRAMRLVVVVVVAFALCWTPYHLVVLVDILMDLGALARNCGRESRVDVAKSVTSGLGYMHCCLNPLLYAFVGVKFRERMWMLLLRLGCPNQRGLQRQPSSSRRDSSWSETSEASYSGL
Experiment: 125I-IP-10 binding assay
Conditions: displacement of 125I-IP-10

IC50 [nM]	Compound
< 500	FC(F)(F)c1cnc(N2CCC3(CC2)NCCc2c3[nH]c3ccccc23)c(Cl)c1 [Example 1]
> 1000	FC(F)(F)c1ccc(N2CCC3(CC2)NCCc2c3[nH]c3ccccc23)nc1 [Example 2]
> 1000	Clc1cnc(N2CCC3(CC2)NCCc2c3[nH]c3ccccc23)c(Cl)c1 [Example 3]
> 1000	Cc1cc(C(F)(F)F)cnc1N1CCC2(CC1)NCCc1c2[nH]c2ccccc12 [Example 4]
< 500	FC(F)(F)c1ccc(N2CCC3(CC2)NCCc2c3[nH]c3ccccc23)c(Cl)c1 [Example 5]
> 1000	FC(F)(F)c1ccc(Cl)c(N2CCC3(CC2)NCCc2c3[nH]c3ccccc23)c1 [Example 6]
> 1000	FC(F)(F)c1ccc(N2CCC3(CC2)NCCc2c3[nH]c3ccccc23)cc1 [Example 7]
> 1000	O=[N+]([O-])c1cc(C(F)(F)F)ccc1N1CCC2(CC1)NCCc1c2[nH]c2ccccc12 [Example 8]
500 to 1000	NC(=O)c1cc(C(F)(F)F)ccc1N1CCC2(CC1)NCCc1c2[nH]c2ccccc12 [Example 9]
> 1000	N#Cc1cc(C(F)(F)F)ccc1N1CCC2(CC1)NCCc1c2[nH]c2ccccc12 [Example 10]
> 1000	FC(F)(F)c1ccc(N2CCC3(CC2)NCCc2c3[nH]c3ccccc23)c(C(F)(F)F)c1 [Example 11]
> 1000	Fc1cc(C(F)(F)F)ccc1N1CCC2(CC1)NCCc1c2[nH]c2ccccc12 [Example 12]
> 1000	FC(F)(F)c1ccc(N2CCC3(CC2)NCCc2c3[nH]c3ccccc23)c(Br)c1 [Example 13]
> 1000	FC(F)(F)c1cc(Cl)c(N2CCC3(CC2)NCCc2c3[nH]c3ccccc23)c(Cl)c1 [Example 14]
< 500	O=[N+]([O-])c1cc(C(F)(F)F)cc(Cl)c1N1CCC2(CC1)NCCc1c2[nH]c2ccccc12 [Example 15]
> 1000	Clc1ccc(N2CCC3(CC2)NCCc2c3[nH]c3ccccc23)c(Cl)c1 [Example 16]
> 1000	Clc1cc(I)ccc1N1CCC2(CC1)NCCc1c2[nH]c2ccccc12 [Example 17]
> 1000	O=[N+]([O-])c1ccc(N2CCC3(CC2)NCCc2c3[nH]c3ccccc23)c(Cl)c1 [Example 18]
> 1000	COC(=O)c1ccc(N2CCC3(CC2)NCCc2c3[nH]c3ccccc23)c(Cl)c1 [Example 19]
